According to patent US9717241B2, “Increased tolerance of DHT-enabled plants to auxinic herbicides resulting from moiety differences in auxinic herbicide molecular structures” (priority 2011, dated 2017):

How the values were obtained:
AMAPA = experiment: Weed control in AAD-1 cotton field plots; assay type: in vivo, Amaranthus palmeri; conditions: 1120 g ae/ha, 3 WAA (maximum control), n = 36 plots
Protocol: (§1) An experiment to compare the efficacies of 2,4-DB and 2,4-D to control weeds in AAD-1 cotton was conducted at nine field sites located near Greenville, Miss. (3 locations); Chula, Ga.; Macon County, Ga.; Attapulgus, Ga.; Memphis, Tenn.; Newport, Ark.; and Fresno, Calif. The experimental design was four replications per site with treatment plots in randomized complete blocks. Each plot had AAD-1-cotton plants in two rows that were 20 feet in length. Weed and cotton plants were targeted at two to six inches in height for a single-application treatment. Treatments consisted of Butyrac 200 (2,4-DB) and Weedar 64 (2,4-D) applied to plots at 560, 840, and 1120 g ae/ha. Weed species were visually assessed once per week for three weeks after herbicide application for the percentage plants (0-100%, where 0 represents no activity or a control and 100% represents death of the target plant) killed or showing severe herbicide-related injury.
(§2) For nearly all targeted species and for each week of measurement, greater levels of control were obtained with increasing application rates of 2,4-DB or 2,4-D, with the greatest control from 1120 g ae/ha. Therefore, based on efficacy, 1120 g ae/ha is the preferred application rate of the three rates tested to control weeds in AAD-1 cotton. At 1120 g ae/ha, control was classified as either ≦80%, >80%, or >90% of weed plants killed or seriously injured.

AAD-1 cotton [1] = experiment: Crop injury on AAD-1 cotton, field experiment at four locations; assay type: in vivo, Cotton (Gossypium spp.); conditions: epinastic foliage per plot, n = 16 plots
Protocol: (§3) By “injury” it is meant the percentage of foliage that is epinastic (has leaf droop, leaf rolling, petiole curvature) as visually assessed by one skilled in the art. The reduced injury from 2,4-DB relative to 2,4-D is observable within minutes after application of these herbicides and continues to be observable for an extended time period thereafter, such as from 2 hrs after application to 30 days after application, including 3 hours after application to 19 days after application and further including 6 hours after application to 24 hours after application.
(§4) To evaluate the tolerance of AAD-1-cotton plants to the effects of 2,4-DB and 2,4-D herbicide compounds, the herbicides Butyrac 200 (2,4-DB) and Weedar 64 (2,4-D) were applied individually by broadcast spraying over AAD-1-cotton plants in two field experiments.
One experiment was conducted at four field locations near Greenville, Miss.; Brinson, Ga.; Memphis, Tenn.; and Fresno, Calif. The experimental design was four replications per site with treatment plots in randomized complete blocks. Each plot had AAD-1-cotton plants in two rows that were 20 feet in length. Cotton plants were targeted at two to four inches in height for single-application treatment. Treatments consisted of Butyrac 200 (2,4-DB) applied at 560, 840, 1120, 1680, and 2240 g ae/ha; and Weedar 64 (2,4-D) applied at 840 and 1120 g ae/ha. AAD-1-cotton plants were visually assessed for the percentage of foliage showing herbicide-related injury one day after application.

AAD-12 cotton = experiment: Crop injury over time on AAD-12 cotton, greenhouse experiment; assay type: in vivo, Cotton (Gossypium spp.); conditions: n = 4 plants
Protocol: as §3
To evaluate the tolerance of AAD-12-cotton plants to the effects of 2,4-DB and 2,4-D herbicide compounds, the herbicides DB Straight (2,4-DB) and Weedar 64 (2,4-D) were applied individually by spraying over AAD-12-cotton plants in one greenhouse experiment. The four treatments consisted of two application rates, 1120 and 2240 g ae/ha, for each of the two herbicides. The experimental design was four replications of single AAD-12-cotton plants per treatment. The plants were grown in pots. Treatments were not randomized. Plants were at the 3- to 4-leaf stage when sprayed. The sprayed AAD-12-cotton plants were visually assessed for the percentage of foliage showing herbicide-related injury on days-0, 1, 2, 4, and 12 after application.

AMASS = experiment: Weed control in AAD-1 cotton field plots; assay type: in vivo, All Amaranthus species excluding AMAPA; conditions: 1120 g ae/ha, 3 WAA (maximum control), n = 36 plots
Protocol: as §1, §2

IPOSS = experiment: Weed control in AAD-1 cotton field plots; assay type: in vivo; conditions: 1120 g ae/ha, 3 WAA (maximum control), n = 36 plots
Protocol: as §1, §2

IPOHG = experiment: Weed control in AAD-1 cotton field plots; assay type: in vivo; conditions: 1120 g ae/ha, 2 WAA (maximum control), n = 36 plots
Protocol: as §1, §2

ACCOS = experiment: Weed control in AAD-1 cotton field plots; assay type: in vivo; conditions: 1120 g ae/ha, 3 WAA (maximum control), n = 36 plots
Protocol: as §1, §2

CASOB = experiment: Weed control in AAD-1 cotton field plots; assay type: in vivo; conditions: 1120 g ae/ha, 3 WAA (maximum control), n = 36 plots
Protocol: as §1, §2

ACNHI = experiment: Weed control in AAD-1 cotton field plots; assay type: in vivo; conditions: 1120 g ae/ha, 2 WAA (maximum control), n = 36 plots
Protocol: as §1, §2

RCHSC = experiment: Weed control in AAD-1 cotton field plots; assay type: in vivo; conditions: 1120 g ae/ha, 3 WAA (maximum control), n = 36 plots
Protocol: as §1, §2

SEBEX = experiment: Weed control in AAD-1 cotton field plots; assay type: in vivo; conditions: 1120 g ae/ha, 3 WAA (maximum control), n = 36 plots
Protocol: as §1, §2

SIDSP = experiment: Weed control in AAD-1 cotton field plots; assay type: in vivo; conditions: 1120 g ae/ha, 3 WAA (maximum control), n = 36 plots
Protocol: as §1, §2

SOLNI = experiment: Weed control in AAD-1 cotton field plots; assay type: in vivo; conditions: 1120 g ae/ha, 3 WAA (maximum control), n = 36 plots
Protocol: as §1, §2

IAQTA = experiment: Weed control in AAD-1 cotton field plots; assay type: in vivo; conditions: 1120 g ae/ha, 2 WAA (maximum control), n = 36 plots
Protocol: as §1, §2

AMARE = experiment: Weed control in AAD-1 cotton field plots; assay type: in vivo; conditions: 1120 g ae/ha, 3 WAA (maximum control), n = 36 plots
Protocol: as §1, §2

AAD-1 cotton [2] = experiment: Crop injury over time on AAD-1 cotton, field experiment near Tifton, Ga.; assay type: in vivo, Cotton (Gossypium spp.); conditions: n = 3 plots
Protocol: as §3, §4
Another experiment was conducted at one field location at the University of Georgia Ponder Farm, near Tifton, Ga. The experimental design was three replications with plots in randomized complete blocks. Each plot had AAD-1-cotton plants in one row that was 25 feet in length. Cotton plants were targeted at […] in height (6-leaf stage) for single-application treatment. Treatments consisted of Butyrac 200 (2,4-DB) applied at 280, 560, 1120, and 2240 g ae ha; and Weedar 64 (2,4-D) applied at 560 and 1120 g ae/ha. AAD-1-cotton plants were visually assessed for the percentage of foliage showing herbicide-related injury on days—0, 1, 2, 19, and 45 after application.

O=C(O)CCCOc1ccc(Cl)cc1Cl [2,4-DB, 4-(2,4-dichlorophenoxy) butyric acid]
Percentage Control of Target Weeds (AMAPA): 81%
Mean Injury 1 DAA, Injury (%) (AAD-1 cotton [1]; 560 g ae/ha post-emergence): 2.3%
Mean Injury 1 DAA, Injury (%) (AAD-1 cotton [1]; 840 g ae/ha post-emergence): 4.1%
Mean Injury 1 DAA, Injury (%) (AAD-1 cotton [1]; 1120 g ae/ha post-emergence): 2.8%
Mean Injury 1 DAA, Injury (%) (AAD-1 cotton [1]; 1680 g ae/ha post-emergence): 4.5%
Mean Injury 1 DAA, Injury (%) (AAD-1 cotton [1]; 2240 g ae/ha post-emergence): 6.3%
Mean Injury (%) (AAD-12 cotton; 1120 g ae/ha, 0 DAA): 0.0 a %
Mean Injury (%) (AAD-12 cotton; 1120 g ae/ha, 1 DAA): 1.8 ab %
Mean Injury (%) (AAD-12 cotton; 1120 g ae/ha, 2 DAA): 0.0 a %
Mean Injury (%) (AAD-12 cotton; 1120 g ae/ha, 4 DAA): 1.0 b %
Mean Injury (%) (AAD-12 cotton; 1120 g ae/ha, 12 DAA): 1.0 a %
Mean Injury (%) (AAD-12 cotton; 2240 g ae/ha, 0 DAA): 0.0 a %
Mean Injury (%) (AAD-12 cotton; 2240 g ae/ha, 1 DAA): 0.0 b %
Mean Injury (%) (AAD-12 cotton; 2240 g ae/ha, 2 DAA): 0.0 a %
Mean Injury (%) (AAD-12 cotton; 2240 g ae/ha, 4 DAA): 0.5 b %
Mean Injury (%) (AAD-12 cotton; 2240 g ae/ha, 12 DAA): 3.3 a %
Percentage Control of Target Weeds (AMASS): 77%
Percentage Control of Target Weeds (IPOSS): 99%
Percentage Control of Target Weeds (IPOHG): 100%
Percentage Control of Target Weeds (ACCOS): 88%
Percentage Control of Target Weeds (CASOB): 100%
Percentage Control of Target Weeds (ACNHI): 99%
Percentage Control of Target Weeds (RCHSC): 99%
Percentage Control of Target Weeds (SEBEX): 89%
Percentage Control of Target Weeds (SIDSP): 84%
Percentage Control of Target Weeds (SOLNI): 89%
Percentage Control of Target Weeds (IAQTA): 99%
Percentage Control of Target Weeds (AMARE): 89%
Mean Injury (%) (AAD-1 cotton [2]; 280 g ae/ha, 0 DAA): 1.7 a %
Mean Injury (%) (AAD-1 cotton [2]; 280 g ae/ha, 1 DAA): 0.7 a %
Mean Injury (%) (AAD-1 cotton [2]; 280 g ae/ha, 2 DAA): 1.3 ab %
Mean Injury (%) (AAD-1 cotton [2]; 280 g ae/ha, 19 DAA): 0.0 a %
Mean Injury (%) (AAD-1 cotton [2]; 280 g ae/ha, 45 DAA): 0.0 a %
Mean Injury (%) (AAD-1 cotton [2]; 560 g ae/ha, 0 DAA): 2.7 a %
Mean Injury (%) (AAD-1 cotton [2]; 560 g ae/ha, 1 DAA): 0.0 a %
Mean Injury (%) (AAD-1 cotton [2]; 560 g ae/ha, 2 DAA): 0.7 a %
Mean Injury (%) (AAD-1 cotton [2]; 560 g ae/ha, 19 DAA): 0.7 a %
Mean Injury (%) (AAD-1 cotton [2]; 560 g ae/ha, 45 DAA): 0.0 a %
Mean Injury (%) (AAD-1 cotton [2]; 1120 g ae/ha, 0 DAA): 5.0 ab %
Mean Injury (%) (AAD-1 cotton [2]; 1120 g ae/ha, 1 DAA): 0.7 a %
Mean Injury (%) (AAD-1 cotton [2]; 1120 g ae/ha, 2 DAA): 1.3 ab %
Mean Injury (%) (AAD-1 cotton [2]; 1120 g ae/ha, 19 DAA): 0.0 a %
Mean Injury (%) (AAD-1 cotton [2]; 1120 g ae/ha, 45 DAA): 1.7 a %
Mean Injury (%) (AAD-1 cotton [2]; 2240 g ae/ha, 0 DAA): 9.3 b %
Mean Injury (%) (AAD-1 cotton [2]; 2240 g ae/ha, 1 DAA): 2.0 a %
Mean Injury (%) (AAD-1 cotton [2]; 2240 g ae/ha, 2 DAA): 3.3 abc %
Mean Injury (%) (AAD-1 cotton [2]; 2240 g ae/ha, 19 DAA): 0.7 a %
Mean Injury (%) (AAD-1 cotton [2]; 2240 g ae/ha, 45 DAA): 0.0 a %

O=C(O)COc1ccc(Cl)cc1Cl [2,4-D]
Percentage Control of Target Weeds (AMAPA): 89%
Mean Injury 1 DAA, Injury (%) (AAD-1 cotton [1]; 840 g ae/ha post-emergence): 7.4%
Mean Injury 1 DAA, Injury (%) (AAD-1 cotton [1]; 1120 g ae/ha post-emergence): 13.0%
Mean Injury (%) (AAD-12 cotton; 1120 g ae/ha, 0 DAA): 0.5 a %
Mean Injury (%) (AAD-12 cotton; 1120 g ae/ha, 1 DAA): 2.3 ab %
Mean Injury (%) (AAD-12 cotton; 1120 g ae/ha, 2 DAA): 3.0 a %
Mean Injury (%) (AAD-12 cotton; 1120 g ae/ha, 4 DAA): 3.0 b %
Mean Injury (%) (AAD-12 cotton; 1120 g ae/ha, 12 DAA): 3.0 a %
Mean Injury (%) (AAD-12 cotton; 2240 g ae/ha, 0 DAA): 1.3 a %
Mean Injury (%) (AAD-12 cotton; 2240 g ae/ha, 1 DAA): 4.3 a %
Mean Injury (%) (AAD-12 cotton; 2240 g ae/ha, 2 DAA): 3.8 a %
Mean Injury (%) (AAD-12 cotton; 2240 g ae/ha, 4 DAA): 6.8 a %
Mean Injury (%) (AAD-12 cotton; 2240 g ae/ha, 12 DAA): 3.0 a %
Percentage Control of Target Weeds (AMASS): 92%
Percentage Control of Target Weeds (IPOSS): 99%
Percentage Control of Target Weeds (IPOHG): 100%
Percentage Control of Target Weeds (ACCOS): 90%
Percentage Control of Target Weeds (CASOB): 98%
Percentage Control of Target Weeds (ACNHI): 99%
Percentage Control of Target Weeds (RCHSC): 97%
Percentage Control of Target Weeds (SEBEX): 88%
Percentage Control of Target Weeds (SIDSP): 89%
Percentage Control of Target Weeds (SOLNI): 93%
Percentage Control of Target Weeds (IAQTA): 99%
Percentage Control of Target Weeds (AMARE): 93%
Mean Injury (%) (AAD-1 cotton [2]; 560 g ae/ha, 0 DAA): 6.7 ab %
Mean Injury (%) (AAD-1 cotton [2]; 560 g ae/ha, 1 DAA): 6.7 b %
Mean Injury (%) (AAD-1 cotton [2]; 560 g ae/ha, 2 DAA): 4.0 bc %
Mean Injury (%) (AAD-1 cotton [2]; 560 g ae/ha, 19 DAA): 1.7 a %
Mean Injury (%) (AAD-1 cotton [2]; 560 g ae/ha, 45 DAA): 3.3 a %
Mean Injury (%) (AAD-1 cotton [2]; 1120 g ae/ha, 0 DAA): 23.3 c %
Mean Injury (%) (AAD-1 cotton [2]; 1120 g ae/ha, 1 DAA): 14.0 c %
Mean Injury (%) (AAD-1 cotton [2]; 1120 g ae/ha, 2 DAA): 4.7 c %
Mean Injury (%) (AAD-1 cotton [2]; 1120 g ae/ha, 19 DAA): 5.0 b %
Mean Injury (%) (AAD-1 cotton [2]; 1120 g ae/ha, 45 DAA): 2.3 a %
